Key:
[1] = target: RAC-alpha serine/threonine-protein kinase (Homo sapiens) (UniProt P31749); assay: Inhibition of AKT1 (unknown origin) at 0.1 uM relative to control
[2] = target: Tyrosine-protein kinase ZAP-70 (Homo sapiens) (UniProt P43403); assay: Inhibition of ZAP-70 (unknown origin) at 0.1 uM relative to control
[3] = target: Casein kinase I isoform gamma-2 (Homo sapiens) (UniProt P78368); assay: Inhibition of CK1gamma2 (unknown origin) at 0.1 uM relative to control
[4] = target: Serine/threonine-protein kinase N1 (Homo sapiens) (UniProt Q16512); assay: Inhibition of PRK1 (unknown origin) at 0.1 uM relative to control
[5] = target: Inhibitor of nuclear factor kappa-B kinase subunit beta (Homo sapiens) (UniProt O14920); assay: Inhibition of IKK beta (unknown origin) at 0.1 uM relative to control
[6] = target: Serine/threonine-protein kinase Chk1 (Homo sapiens) (UniProt O14757); assay: Inhibition of CHK1 (unknown origin) at 0.1 uM relative to control
[7] = target: Dual specificity mitogen-activated protein kinase kinase 1 (Homo sapiens) (UniProt Q02750); assay: Inhibition of MEK1 (unknown origin) at 0.1 uM relative to control
Homo sapiens [8] = species: Homo sapiens; assay: Inhibition of p70S6K (unknown origin) at 0.1 uM relative to control
[9] = target: Serine/threonine-protein kinase PLK3 (Homo sapiens) (UniProt Q9H4B4); assay: Inhibition of PLK3 (unknown origin) at 0.1 uM relative to control
[10] = target: MAP/microtubule affinity-regulating kinase 3 (Homo sapiens) (UniProt P27448); assay: Inhibition of MARK3 (unknown origin) at 0.1 uM relative to control
[11] = target: Fibroblast growth factor receptor 1 (Homo sapiens) (UniProt P11362); assay: Inhibition of FGFR1 (unknown origin) at 0.1 uM relative to control
[12] = target: Glycogen synthase kinase-3 beta (Homo sapiens) (UniProt P49841); assay: Inhibition of GSK beta (unknown origin) at 0.1 uM relative to control
[13] = target: Ribosomal protein S6 kinase alpha-6 (Homo sapiens) (UniProt Q9UK32); assay: Inhibition of Rsk4 (unknown origin) at 0.1 uM relative to control
[14] = target: Serine/threonine-protein kinase pim-1 (Homo sapiens) (UniProt P11309); assay: Inhibition of PIM1 (unknown origin) at 0.1 uM relative to control
[15] = target: Fibroblast growth factor receptor 3 (Homo sapiens) (UniProt P22607); assay: Inhibition of FGFR3 (unknown origin) at 0.1 uM relative to control
[16] = target: Serine/threonine-protein kinase SIK2 (Homo sapiens) (UniProt Q9H0K1); assay: Inhibition of SIK2 (unknown origin) at 0.1 uM relative to control
[17] = target: Serine/threonine-protein kinase PAK 3 (Homo sapiens, UniProt O75914); assay: Inhibition of PAK3 (unknown origin) at 0.1 uM relative to control
[18] = target: Insulin-like growth factor 1 receptor (Homo sapiens) (UniProt P08069); assay: Inhibition of IGF1R (unknown origin) at 0.1 uM relative to control
[19] = target: Tyrosine-protein kinase BTK (Homo sapiens) (UniProt Q06187); assay: Inhibition of BTK (unknown origin) at 0.1 uM relative to control
[20] = target: Serine/threonine-protein kinase Nek1 (Homo sapiens) (UniProt Q96PY6); assay: Inhibition of NEK1 (unknown origin) at 0.1 uM relative to control
[21] = target: Serine/threonine-protein kinase PAK 6 (Homo sapiens, UniProt Q9NQU5); assay: Inhibition of PAK6 (unknown origin) at 0.1 uM relative to control
[22] = target: Mitogen-activated protein kinase 10 (Homo sapiens) (UniProt P53779); assay: Inhibition of JNK3 (unknown origin) at 0.1 uM relative to control
Homo sapiens [23] = species: Homo sapiens; assay: Inhibition of PDGFRalpha V560D mutant (unknown origin) at 0.1 uM relative to control
[24] = target: Serine/threonine-protein kinase B-raf (Homo sapiens) (UniProt P15056); assay: Inhibition of B-Raf (unknown origin) at 0.1 uM relative to control
[25] = target: Mitogen-activated protein kinase kinase kinase kinase 4 (Homo sapiens) (UniProt O95819); assay: Inhibition of MAP4K4 (unknown origin) at 0.1 uM relative to control
[26] = target: Myosin light chain kinase 2, skeletal/cardiac muscle (Homo sapiens) (UniProt Q9H1R3); assay: Inhibition of MYLK2 (unknown origin) at 0.1 uM relative to control
[27] = target: Ephrin type-A receptor 2 (Homo sapiens) (UniProt P29317); assay: Inhibition of EphA2 (unknown origin) at 0.1 uM relative to control
[28] = target: Serine/threonine-protein kinase PAK 2 (Homo sapiens, UniProt Q13177); assay: Inhibition of PAK2 (unknown origin) at 0.1 uM relative to control
[29] = target: Serine/threonine-protein kinase Sgk3 (Homo sapiens) (UniProt Q96BR1); assay: Inhibition of SGK3 (unknown origin) at 0.1 uM relative to control
[30] = target: Insulin receptor-related protein (Homo sapiens) (UniProt P14616); assay: Inhibition of IRR (unknown origin) at 0.1 uM relative to control
[31] = target: High affinity nerve growth factor receptor (Homo sapiens) (UniProt P04629); assay: Inhibition of TrkA (unknown origin) at 0.1 uM relative to control
[32] = target: Platelet-derived growth factor receptor beta (Homo sapiens) (UniProt P09619); assay: Inhibition of PDGFRbeta (unknown origin) at 0.1 uM relative to control
[33] = target: Serine/threonine-protein kinase MARK1 (Homo sapiens) (UniProt Q9P0L2); assay: Inhibition of MARK1 (unknown origin) at 0.1 uM relative to control
[34] = target: Hepatocyte growth factor receptor (Homo sapiens) (UniProt P08581); assay: Inhibition of Met (unknown origin) at 0.1 uM relative to control
[35] = target: Serine/threonine-protein kinase PAK 5 (Homo sapiens, UniProt Q9P286); assay: Inhibition of PAK5 (unknown origin) at 0.1 uM relative to control
[36] = target: Serine/threonine-protein kinase TAO1 (Homo sapiens) (UniProt Q7L7X3); assay: Inhibition of TAO1 (unknown origin) at 0.1 uM relative to control
[37] = target: Receptor-type tyrosine-protein kinase FLT3 (Homo sapiens) (UniProt P36888); assay: Inhibition of Flt3 (unknown origin) at 0.1 uM relative to control
[38] = target: Glycogen synthase kinase-3 alpha (Homo sapiens) (UniProt P49840); assay: Inhibition of GSK3alpha (unknown origin) at 0.1 uM relative to control
[39] = target: Cyclin-dependent kinase 1/cyclin B1 (Homo sapiens) (UniProt P06493+P14635); assay: Inhibition of CDK1/cyclinB (unknown origin) at 0.1 uM relative to control; format: protein-complex assay
[40] = target: Mitogen-activated protein kinase 9 (Homo sapiens) (UniProt P45984); assay: Inhibition of JNK2 (unknown origin) at 0.1 uM relative to control

Myosin light chain kinase 2, skeletal/cardiac muscle (Homo sapiens), sequence (Q9H1R3 whole entry): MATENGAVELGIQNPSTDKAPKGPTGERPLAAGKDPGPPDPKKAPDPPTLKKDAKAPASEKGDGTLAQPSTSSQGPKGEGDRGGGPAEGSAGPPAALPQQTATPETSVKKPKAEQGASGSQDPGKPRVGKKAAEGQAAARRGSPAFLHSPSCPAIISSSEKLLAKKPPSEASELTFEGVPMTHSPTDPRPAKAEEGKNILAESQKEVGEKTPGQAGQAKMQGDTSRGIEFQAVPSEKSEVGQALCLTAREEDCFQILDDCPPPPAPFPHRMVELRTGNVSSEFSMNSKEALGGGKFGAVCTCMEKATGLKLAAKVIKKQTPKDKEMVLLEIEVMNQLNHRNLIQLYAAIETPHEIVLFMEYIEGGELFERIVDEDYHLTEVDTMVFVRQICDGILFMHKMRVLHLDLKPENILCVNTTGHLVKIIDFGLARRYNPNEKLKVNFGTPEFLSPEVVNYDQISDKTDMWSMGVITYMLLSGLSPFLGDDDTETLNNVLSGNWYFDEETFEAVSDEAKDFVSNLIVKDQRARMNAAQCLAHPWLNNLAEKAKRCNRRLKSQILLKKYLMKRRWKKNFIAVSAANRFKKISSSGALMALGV
Ephrin type-A receptor 2 (Homo sapiens), sequence (P29317 whole entry): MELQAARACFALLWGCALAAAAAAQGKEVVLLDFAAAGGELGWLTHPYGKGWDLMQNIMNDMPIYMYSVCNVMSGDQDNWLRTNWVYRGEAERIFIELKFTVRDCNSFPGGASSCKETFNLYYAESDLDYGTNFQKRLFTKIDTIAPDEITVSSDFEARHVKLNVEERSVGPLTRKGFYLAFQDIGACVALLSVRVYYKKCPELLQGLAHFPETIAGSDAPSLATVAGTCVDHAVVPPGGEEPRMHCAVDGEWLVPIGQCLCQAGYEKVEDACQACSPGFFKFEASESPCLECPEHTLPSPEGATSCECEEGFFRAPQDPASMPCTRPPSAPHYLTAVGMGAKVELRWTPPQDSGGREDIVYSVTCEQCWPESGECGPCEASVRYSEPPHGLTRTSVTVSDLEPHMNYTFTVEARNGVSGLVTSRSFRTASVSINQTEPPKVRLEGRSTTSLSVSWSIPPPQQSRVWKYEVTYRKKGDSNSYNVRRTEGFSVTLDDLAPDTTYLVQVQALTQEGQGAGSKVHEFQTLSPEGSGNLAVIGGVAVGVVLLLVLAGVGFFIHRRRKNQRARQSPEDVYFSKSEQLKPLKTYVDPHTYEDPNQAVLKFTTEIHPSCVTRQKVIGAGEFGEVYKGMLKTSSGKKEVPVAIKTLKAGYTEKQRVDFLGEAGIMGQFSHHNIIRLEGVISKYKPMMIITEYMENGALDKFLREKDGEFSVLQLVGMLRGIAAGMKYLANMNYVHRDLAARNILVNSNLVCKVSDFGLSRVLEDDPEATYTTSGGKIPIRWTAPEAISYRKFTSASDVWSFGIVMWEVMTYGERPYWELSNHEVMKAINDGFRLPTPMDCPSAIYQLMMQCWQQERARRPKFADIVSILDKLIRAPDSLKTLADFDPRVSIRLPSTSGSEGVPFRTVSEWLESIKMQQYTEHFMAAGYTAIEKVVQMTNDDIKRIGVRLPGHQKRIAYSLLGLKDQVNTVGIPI
Serine/threonine-protein kinase TAO1 (Homo sapiens), sequence (Q7L7X3 whole entry): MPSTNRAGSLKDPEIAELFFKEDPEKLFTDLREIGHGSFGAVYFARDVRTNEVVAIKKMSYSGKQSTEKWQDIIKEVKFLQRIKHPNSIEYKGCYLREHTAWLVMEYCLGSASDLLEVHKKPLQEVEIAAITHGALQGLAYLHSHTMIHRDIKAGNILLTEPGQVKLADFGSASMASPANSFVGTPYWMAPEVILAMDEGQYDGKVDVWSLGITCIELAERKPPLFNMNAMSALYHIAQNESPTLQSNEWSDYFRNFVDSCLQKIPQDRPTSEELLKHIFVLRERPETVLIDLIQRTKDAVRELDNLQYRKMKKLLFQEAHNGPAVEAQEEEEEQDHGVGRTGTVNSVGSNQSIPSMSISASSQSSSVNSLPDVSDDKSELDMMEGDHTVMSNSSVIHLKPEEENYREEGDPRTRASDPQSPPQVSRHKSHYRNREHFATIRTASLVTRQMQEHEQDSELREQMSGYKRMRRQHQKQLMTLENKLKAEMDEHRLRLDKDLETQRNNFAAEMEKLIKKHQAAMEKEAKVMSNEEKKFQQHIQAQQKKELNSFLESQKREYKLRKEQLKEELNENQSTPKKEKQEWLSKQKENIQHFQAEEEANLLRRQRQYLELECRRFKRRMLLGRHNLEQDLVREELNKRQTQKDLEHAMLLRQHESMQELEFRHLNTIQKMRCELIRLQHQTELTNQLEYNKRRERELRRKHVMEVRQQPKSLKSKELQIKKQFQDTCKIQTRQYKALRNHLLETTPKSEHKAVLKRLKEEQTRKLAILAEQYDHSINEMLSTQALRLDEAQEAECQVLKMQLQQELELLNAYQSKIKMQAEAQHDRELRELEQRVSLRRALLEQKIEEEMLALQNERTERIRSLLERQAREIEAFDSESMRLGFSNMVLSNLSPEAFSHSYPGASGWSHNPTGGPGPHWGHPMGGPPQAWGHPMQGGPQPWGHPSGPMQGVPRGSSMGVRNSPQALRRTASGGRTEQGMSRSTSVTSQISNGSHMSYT
Dual specificity mitogen-activated protein kinase kinase 1 (Homo sapiens), sequence (Q02750 whole entry): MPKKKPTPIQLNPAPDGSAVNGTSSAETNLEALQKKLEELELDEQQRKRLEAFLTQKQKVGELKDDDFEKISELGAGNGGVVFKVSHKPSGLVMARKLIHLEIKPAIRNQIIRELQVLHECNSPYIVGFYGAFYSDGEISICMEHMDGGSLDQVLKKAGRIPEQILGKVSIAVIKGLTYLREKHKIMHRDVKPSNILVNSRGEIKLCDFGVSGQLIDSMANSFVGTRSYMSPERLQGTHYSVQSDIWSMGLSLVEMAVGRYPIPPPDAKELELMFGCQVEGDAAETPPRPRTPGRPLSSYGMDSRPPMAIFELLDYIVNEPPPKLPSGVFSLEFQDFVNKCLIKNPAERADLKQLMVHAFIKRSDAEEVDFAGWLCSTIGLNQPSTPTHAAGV
Serine/threonine-protein kinase B-raf (Homo sapiens), sequence (P15056 whole entry): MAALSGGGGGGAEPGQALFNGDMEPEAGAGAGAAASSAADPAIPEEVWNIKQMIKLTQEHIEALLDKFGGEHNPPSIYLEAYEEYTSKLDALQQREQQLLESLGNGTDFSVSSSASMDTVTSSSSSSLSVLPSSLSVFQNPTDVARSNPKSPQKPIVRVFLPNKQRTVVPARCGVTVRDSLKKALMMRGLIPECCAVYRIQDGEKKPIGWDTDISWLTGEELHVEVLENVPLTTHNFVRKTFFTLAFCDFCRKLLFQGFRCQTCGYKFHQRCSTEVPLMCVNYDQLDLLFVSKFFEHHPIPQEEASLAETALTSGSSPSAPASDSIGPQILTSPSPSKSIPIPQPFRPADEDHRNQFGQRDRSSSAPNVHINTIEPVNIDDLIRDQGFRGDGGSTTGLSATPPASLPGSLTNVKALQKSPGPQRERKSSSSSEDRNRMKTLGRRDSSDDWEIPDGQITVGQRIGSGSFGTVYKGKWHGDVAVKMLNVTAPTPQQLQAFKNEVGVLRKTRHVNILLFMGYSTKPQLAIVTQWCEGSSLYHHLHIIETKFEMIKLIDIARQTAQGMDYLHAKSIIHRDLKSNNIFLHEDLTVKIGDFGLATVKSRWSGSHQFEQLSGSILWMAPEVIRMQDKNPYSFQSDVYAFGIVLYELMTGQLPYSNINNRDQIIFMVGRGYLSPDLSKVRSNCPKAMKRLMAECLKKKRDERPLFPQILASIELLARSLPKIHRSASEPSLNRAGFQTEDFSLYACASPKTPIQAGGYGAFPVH
Serine/threonine-protein kinase Nek1 (Homo sapiens), sequence (Q96PY6 whole entry): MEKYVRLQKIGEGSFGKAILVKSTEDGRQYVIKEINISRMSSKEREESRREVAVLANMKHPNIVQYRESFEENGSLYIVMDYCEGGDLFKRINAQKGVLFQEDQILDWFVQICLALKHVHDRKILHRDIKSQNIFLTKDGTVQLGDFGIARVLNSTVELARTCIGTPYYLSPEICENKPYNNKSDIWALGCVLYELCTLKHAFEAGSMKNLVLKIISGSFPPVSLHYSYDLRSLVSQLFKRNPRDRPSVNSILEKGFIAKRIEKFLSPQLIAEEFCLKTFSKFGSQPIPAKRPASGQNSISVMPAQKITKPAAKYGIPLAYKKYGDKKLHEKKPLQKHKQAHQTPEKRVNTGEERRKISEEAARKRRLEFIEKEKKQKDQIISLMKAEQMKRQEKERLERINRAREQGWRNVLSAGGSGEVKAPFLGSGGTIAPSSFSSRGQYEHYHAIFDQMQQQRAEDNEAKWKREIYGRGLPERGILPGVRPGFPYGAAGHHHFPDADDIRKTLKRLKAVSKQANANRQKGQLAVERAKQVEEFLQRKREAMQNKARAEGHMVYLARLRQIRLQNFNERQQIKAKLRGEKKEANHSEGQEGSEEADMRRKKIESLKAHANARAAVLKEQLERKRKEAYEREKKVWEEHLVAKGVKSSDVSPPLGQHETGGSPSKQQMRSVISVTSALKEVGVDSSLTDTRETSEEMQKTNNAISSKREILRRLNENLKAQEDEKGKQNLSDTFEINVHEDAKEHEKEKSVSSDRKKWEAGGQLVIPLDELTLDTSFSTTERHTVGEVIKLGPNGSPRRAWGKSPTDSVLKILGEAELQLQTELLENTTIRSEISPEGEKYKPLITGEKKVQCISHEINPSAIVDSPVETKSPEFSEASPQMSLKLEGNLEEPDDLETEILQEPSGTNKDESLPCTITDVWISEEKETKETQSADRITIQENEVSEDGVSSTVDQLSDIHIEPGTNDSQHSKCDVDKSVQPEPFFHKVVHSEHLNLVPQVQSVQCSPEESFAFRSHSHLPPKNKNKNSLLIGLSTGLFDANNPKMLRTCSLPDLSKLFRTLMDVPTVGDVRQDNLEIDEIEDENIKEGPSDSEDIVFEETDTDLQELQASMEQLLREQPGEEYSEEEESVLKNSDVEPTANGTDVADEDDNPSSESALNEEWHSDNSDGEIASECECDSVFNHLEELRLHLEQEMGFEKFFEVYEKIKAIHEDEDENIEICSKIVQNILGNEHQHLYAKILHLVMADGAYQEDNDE

Row | Compound | inhibition [1] | inhibition [2] | inhibition [3] | inhibition [4] | inhibition [5] | inhibition [6] | inhibition [7] | inhibition (Homo sapiens [8]) | inhibition [9] | inhibition [10] | inhibition [11] | inhibition [12] | inhibition [13] | inhibition [14] | inhibition [15] | inhibition [16] | inhibition [17] | inhibition [18] | inhibition [19] | inhibition [20] | also measured
1 | COCCNc1nc2ccc(C#CC3(O)CCCCC3)cc2n1-c1ccnc(N)n1 | 1.1% | 2.4% | 18.3% | -2.3% | 6.5% | -3.5% | 2.5% | 7.2% | 9.2% | 5.5% | -4.5% | 4.6% | 2.4% | 3.8% | 7.6% | 0.8% | 3.3% | 2.9% | 0.8% | 0.3% | inhibition [21]: 49.9%; inhibition [22]: 2.7%; inhibition (Homo sapiens [23]): -3.5%; inhibition [24]: 8.2%; inhibition [25]: 14.6%; inhibition [26]: -1.5%; inhibition [27]: 15%; inhibition [28]: 14.9%; inhibition [29]: 9.3%; inhibition [30]: 7.4%; inhibition [31]: 9%; inhibition [32]: 0.7%; inhibition [33]: 11.3%; inhibition [34]: 2.6%; inhibition [35]: 75.1%; inhibition [36]: -0.2%; inhibition [37]: 8.7%; inhibition [38]: 9.7%; inhibition [39]: 8.1%; inhibition [40]: -1%
2 | CN1CCc2cc(-c3cnc4[nH]cc(C(=O)c5ccccc5Cl)c4c3)ccc2C1 | 3.3% | 4.5% | -1.5% | -1.6% | 3.3% | 19.1% | 23.8% | 15.3% | -5.8% | 37% | 83% | 11% | 11.9% | -2% | 45.5% | 96.3% | 92.6% | 6.5% | 86.3% | 1.5% | inhibition [21]: 21.8%; inhibition [22]: 2.3%; inhibition (Homo sapiens [23]): 66.9%; inhibition [24]: 49%; inhibition [25]: 104%; inhibition [26]: 25.5%; inhibition [27]: 43.5%; inhibition [28]: 97.7%; inhibition [29]: 19.5%; inhibition [30]: 14.5%; inhibition [31]: 51.6%; inhibition [32]: 96%; inhibition [33]: 25.8%; inhibition [34]: 13.3%; inhibition [35]: 28.5%; inhibition [36]: 91.5%; inhibition [37]: 83.4%; inhibition [38]: 40.6%; inhibition [39]: 16.5%; inhibition [40]: 14.8%
